Several values for one entry are separate records, joined by “and”; a condition that tells them apart may be missing. Equal entries are not always repeated. Bounds are passed on as bounds.

Assay [1] deals with NCTC 13142. Briefly: Oxacillin MIC and sensitization broth growth assay (broth microdilution, CLSI). In kind it is cell-based, Staphylococcus aureus (MRSA). Conditions: for Oxacillin MIC with anti-mecA PNA treatment: NCTC 13142, 5 μM PNA; for Sensitization to oxacillin in broth microdilution assays: NCTC 13142, PNAs with EJH-L1 or HIV-1 Tat carrier, data not shown. Here is the method: (§1) The MRSA strain NCTC 13142 from Public Health England Culture Collections is a UK epidemic strain type EMRSA-15, SCCmec Type IV, and the MRSP strain HH-1 was isolated from a canine skin infection and is ST71, SCCmecII-III [19]. Bacteria were cultured on Columbia base agar (Oxoid, Basingstoke, UK) supplemented with 5 % horse blood (Oxoid) and 6 μg/ml oxacillin (Sigma Aldrich, UK) at 35 °C for 20 h. Overnight broth cultures were prepared from single bacterial colonies inoculated in 3 ml Mueller Hinton broth (MHB, Oxoid) supplemented with 6 μg/ml oxacillin and incubated at 35 °C for 20 h at 180 rpm on a rotary shaker.
(§2) The MIC of oxacillin was determined by broth microdilution according to CLSI guidelines. Briefly, overnight broth cultures of MRSA and MRSP were standardized to OD625 = 0.08–0.09 (equivalent to 10^8 CFU/ml) in MHB and further diluted 100-fold to obtain 10^6 CFU/ml. The bacterial suspension was then inoculated at 50 μl per well to a final concentration of 5 × 10^5 CFU/ml. Two-fold serial dilutions of oxacillin (2–512 μg/ml) were added to bacterial cultures at 50 μl per well to a final volume of 100 μl per well, and 96 well plates were incubated at 35 °C for 24 h. MICs were visually scored.
(§3) Overnight broth cultures were adjusted to 5 × 10^5 CFU/ml per well of a 96 well plate as described above and used either in a broth growth assay or a viable count assay. The broth growth assay was used as an initial screen of PNA efficacy because it was simple to carry out. […] Anti-mecA PNAs were added at either 2.5 or 5 μM. After incubation at 35 °C for 24 h, the MIC of oxacillin in combination with the PNAs in broth cultures were scored visually as recommended by CLSI guidelines.
A general note: Dilution methods test growth across graded concentrations, often in twofold steps.

In assay [2] the test system is HH-1. The description is as above. Format: cell-based, Staphylococcus pseudintermedius (MRSP). Conditions: for Oxacillin MIC with anti-mecA PNA treatment: HH-1, 2.5 μM PNA; for Sensitization to oxacillin in broth microdilution assays: HH-1, PNAs with EJH-L1 or HIV-1 Tat carrier, data not shown. Here is the method:
as §1, §2, §3

For assay [3], the system named is NCTC 13142. Briefly: Oxacillin sensitization viable count assay (CFU on oxacillin plates). In kind it is cell-based, Staphylococcus aureus (MRSA). Particulars: for Sensitization to oxacillin (CFU reduction), result in words: NCTC 13142, PNA 2.5, 5, 7.5 μM (Z46: 7.5 μM), 6 h, plated on 16 μg/ml oxacillin, n = 3. Here is the method: (§4) The viable count assay is more sensitive than the broth assay and was used to assess the effects of PNAs that performed well in the initial screen described above. In the viable count assay, 5 × 10^5 CFU/ml per well of culture was treated either with 2.5, 5 and 7.5 μM of PNA for NCTC 13142, or 1, 2.5 and 5 μM of PNA for HH-1 in MHB at 35 °C for 6 h. […] Agar plates were incubated at 35 °C for 24 h, and dilutions resulting in 30–300 colonies per plate were used to determine the viable count. Experimental repeats were carried out on separate days, and reductions in CFU of treated cultures were normalized to CFU of the untreated control culture on the day. Statistical analysis of CFU reductions was carried out with the paired Student’s t-Test in Microsoft Excel.

Assay [4] has as its system mecA mRNA. In words: mecA mRNA level by RT-qPCR. In kind it is cell-based, Staphylococcus pseudintermedius (MRSP) HH-1. Particulars: HH-1, 2.5 μM PNA, no oxacillin, normalized to proC and pyk, average, n = 3. How it is done: (§5) Growth of cultures in a 96 well plate was monitored by reading the optical density at 550 nm every 5 min, after shaking for 5 s in a microplate reader (Spectramax 340PC, […]). Cultures were harvested when the untreated control culture increased in OD550 ≈ 0.1. Cultures with the same PNA treatment but in different wells across the 96 well plate were pooled for total RNA extraction and DNase I treatment (Ribopure™ Bacteria kit, Life Technologies). RNA was checked for gDNA contamination by qPCR using gyrA primers (Additional file 1: Table S1) and SsoFast™ EvaGreen® Supermix (Bio-Rad) before cDNA synthesis using 50 ng RNA and iScript™ Reverse Transcription Supermix (Bio-Rad). Samples of cDNA were diluted 10-fold and 4 μl used in each qPCR reaction. Non-template controls were included for each primer pair in each run, and technical duplicates for each sample were included in each run.
(§6) Primer pairs for qPCR were designed by Primer3 with a Tm of 60 °C and product sizes of 100–200 bp (Additional file 1: Table S1). […] Primer efficiencies were determined using 10-fold serial dilutions of cDNA (10 pg-1 μg). […]
Total RNA and cDNA were prepared as described above. Raw Cq values were analysed in qbase + (Biogazelle, Belgium) with user-defined primer efficiencies (Additional file 1: Table S1) and expression stabilities (M value) of each candidate reference gene fabD, gyrA, proC, pta, pyk, rho, sodA, and tpiA were calculated as the average pairwise variation for each gene with all other tested genes. […] Stepwise exclusion of the gene with the highest M value allowed ranking of the tested genes according to their expression stability, and from this the optimal number of reference genes was calculated. […] Relative mRNA levels were then calculated as induced normalized Cq/uninduced normalized Cq, and analysed with paired Student’s t-Test in Microsoft Excel.
For orientation: Real-time PCR tracks product formation cycle by cycle.

For assay [5], the system named is HH-1. In words: Oxacillin sensitization viable count assay (CFU on oxacillin plates). Format: cell-based, Staphylococcus pseudintermedius (MRSP). Particulars: for Sensitization to oxacillin (CFU reduction), result in words: HH-1, A73 and scrA 1, 2.5, 5 μM, Z46 0.5, 1, 2.5 μM, 6 h, plated on 16 μg/ml oxacillin, n = 3. How it is done: as §4
In assay [6] the test system is NCTC 13142. In words: Growth inhibition assay (OD550 growth curves). Format: cell-based, Staphylococcus aureus (MRSA). Conditions: NCTC 13142, MHB with 6 μg/ml oxacillin, PNA 0–7.5 μM, 35 °C, 6 h, OD550, n = 3. How it is done: Anti-ftsZ PNAs were tested for effects on growth. Overnight MHB cultures were adjusted to 5 × 10^5 CFU/ml per well of a 96 well plate in MHB supplemented with 6 μg/ml oxacillin as described above. Anti-ftsZ PNA was added to final concentrations of 0, 1, 2.5, 5, 7.5 μM and incubated in a microplate reader (Spectramax 340PC, Molecular Devices) at 35 °C for 6 h. The optical density of the cultures was monitored at 550 nm with readings every 5 min after shaking for 5 s.

Assay [7] concerns mecA mRNA. In words: mecA mRNA level by RT-qPCR. Format: cell-based, Staphylococcus aureus (MRSA) NCTC 13142. How it is done:
as §5, with “Non-template controls were included for each primer pair in each run, and technical duplicates for each sample were included in each run.” left out
as §6
Total RNA and cDNA were prepared as described above. Raw Cq values were analysed in qbase + (Biogazelle, Belgium) with user-defined primer efficiencies (Additional file 1: Table S1) and expression stabilities (M value) of each candidate reference gene fabD, gyrA, proC, pta, pyk, rho, sodA, and tpiA were calculated as the average pairwise variation for each gene with all other tested genes. […]

Setting [8] is: MHB, 35 °C, 24 h, scored visually, n=2.

Consider “KFFKFFKFFK-eg1-ttcatcaata-CONH2 [A55, anti-mecA PNA (−5 to +5) conjugated to cell-penetrating peptide …]”, for which the entries for the “Oxacillin MIC with anti-mecA PNA treatment” value with NCTC 13142 [1] (setting [8]) and in the assay with HH-1 [2] (setting [8]) were 256 µg/mL and 512 µg/mL, respectively.

Turning to KFFKFFKFFK-O-cactataatc-CONH2 [scrA], the “Sensitization to oxacillin (CFU reduction), result in words” value is recorded as “did not have an effect” in the assay on NCTC 13142 [3] and “significant sensitization” with HH-1 [5]. Moreover, the “Reduction of mecA transcripts” value with mecA mRNA [4] was “did not have a significant effect”.

With `Cc1onc(-c2ccccc2)c1C(=O)N[C@@H]1C(=O)N2[C@@H]1SC(C)(C)[C@@H]2C(=O)O` [Oxacillin, oxacillin], the “Oxacillin MIC” value in the assay with NCTC 13142 [1] (NCTC 13142, 0 μM PNA, MHB, 35 °C, 24 h, scored visually, n=2) is 256 µg/mL and 512 µg/mL; in the assay on HH-1 [2] (HH-1, 0 μM PNA, MHB, 35 °C, 24 h, scored visually, n=2), 512 µg/mL. Also, the MIC in the assay with NCTC 13142 [1] (Staphylococcus aureus, NCTC13142, 24 h, NCTC 13142, 0 μM PNA, MHB, 35 °C, 24 h, scored visually, n=2) was ≥ 256 µg/mL; in the assay with HH-1 [2] (Staphylococcus pseudintermedius, 24 h, HH-1, 0 μM PNA, MHB, 35 °C, scored visually, n=2) it was ≥ 256 µg/mL.

For the compound “MINWKLRLKNK-O-cactataatc-CONH2 [scrA-EJH, scrambled PNA conjugated to EJH-L1 peptide (…)]”, the “Sensitization to oxacillin in broth microdilution assays” value with NCTC 13142 [1] and with HH-1 [2] was “did not have an effect” throughout.

In the case of “KFFKFFKFFK-eg1-TTCTAACATT-NH2 [Z19, anti-ftsZ PNA (−1 to +9) conjugated to the (KFF)3K peptide]”, the “Concentration that inhibited growth” value in the assay with NCTC 13142 [6] was “ineffective”.

As to “YGRKKRRQRRR-O-catcaatatc-CONH2 [A73-Tat]”, the “Sensitization to oxacillin in broth microdilution assays” value in the assay on NCTC 13142 [1] and in the assay with HH-1 [2] was 2 fold throughout.

As to “KFFKFFKFFK-eg1-atcaatatcc-CONH2 [A82, anti-mecA PNA (−8 to +2) conjugated to cell-penetrating peptide …]”, the entries for the “Oxacillin MIC with anti-mecA PNA treatment” value with NCTC 13142 [1] (setting [8]) and with HH-1 [2] (setting [8]) were 128 µg/mL and 256 µg/mL, respectively.

Turning to “MINWKLRLKNK-O-catcaatatc-CONH2 [A73-EJH]”, the “Sensitization to oxacillin in broth microdilution assays” value in the assay on NCTC 13142 [1] and in the assay on HH-1 [2] was 2 fold each time.

Regarding “KFFKFFKFFK-O-caatatcctc-CONH2 [A101, anti-mecA PNA (−10 to −1) conjugated to cell-penetrating peptide …]”, the “Oxacillin MIC with anti-mecA PNA treatment” value in the assay with NCTC 13142 [1] (setting [8]) stood at 512 µg/mL; in the assay with HH-1 [2] (setting [8]) it was 256 µg/mL.

With “KFFKFFKFFK-O-catcaatatc-CONH2 [A73, anti-mecA PNA (−7 to +3) conjugated to cell-penetrating peptide …]”, the “mecA mRNA, result in words” value in the assay on mecA mRNA [7] (MRSA, 7.5 μM PNA, p < 0.05) is “reduced”. In addition, the “Reduction of mecA transcripts” value is listed as 38% in the assay on mecA mRNA [7] (NCTC 13142, 5 μM PNA, no oxacillin, normalized to pta and gyrA, average, n = 3); 40% in the assay on mecA mRNA [4]; “reduced” in the assay on mecA mRNA [4] (listed as Anti-mecA PNA). In addition, the results for the “Oxacillin MIC with anti-mecA PNA treatment” value in the assay with NCTC 13142 [1] (setting [8]) and in the assay with HH-1 [2] (setting [8]) were 128 µg/mL and 64 µg/mL, respectively. The “Sensitization of broth cultures to oxacillin” value in the assay on NCTC 13142 [1] (NCTC 13142, 2.5–5 μM PNA, initial screening) was 4–8 fold; in the assay with HH-1 [2] (HH-1, 2.5–5 μM PNA, initial screening), 4–8 fold. For the same compound, in the assay with NCTC 13142 [3] (7.5 μM PNA, 6 h at 35 °C, plated on MH agar with 16 μg/ml oxacillin, relative to untreated control), the “MRSA cells killed by oxacillin” value was 66%. Also, the “Sensitization to oxacillin (CFU reduction), result in words” value in the assay on NCTC 13142 [3] and in the assay with HH-1 [5] was “significantly sensitized” in each case. Further, the “MRSP cells killed by oxacillin” value in the assay with HH-1 [5] (2.5 μM PNA, 6 h at 35 °C, plated on MH agar with 16 μg/ml oxacillin, relative to untreated control) was 92%.

As for “YGRKKRRQRRR-O-cactataatc-CONH2 [scrA-Tat, scrambled PNA conjugated to HIV 1-Tat peptide (…)]”, the “Sensitization to oxacillin in broth microdilution assays” value in the assay with NCTC 13142 [1] and in the assay with HH-1 [2] was “did not have an effect” throughout.

Broadly, the MIC is the smallest concentration in the dilution series that meets the test's criterion for growth inhibition.

For the origin of these results see paper PMC4642645, “Oxacillin sensitization of methicillin-resistant Staphylococcus aureus and methicillin-resistant Staphylococcus pseudintermedius by antisense peptide nucleic acids in vitro” (BMC Microbiology, 2015).
